Test results: PubChem BioAssay AID1963973 (Molecular Pharmacology Branch, DTP, NCI, 2024)
pIC50: −log10 of the molar value.

System: 883617-216-R-J1-PDC tumor spheroids, viability
Assay: Anticancer human tumor 883617-216-R-J1-PDC patient-derived bladder carcinoma cell line growth inhibition [PI3K]
Conditions: spheroids with HUVEC and MSC; for pIC50: curve of first compound; for viability, T/C: stronger effect = lower value; active = viability on the fitted dose curve at most 10% of control; inactive = the rest
Method in brief: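 Complex 3D spheroids (cancer cells + endothelial HUVEC + mesenchymal stem cells); drug pairs of targeted agent x inavolisib/alpelisib/duvelisib/copanlisib; half-log series from ~Cmax, max 10 microM if Cmax unknown; endpoint viability.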

[1] = second compound 0.00316 µM, first compound 0.0316 µM
[2] = second compound 0.00316 µM, first compound 0.1 µM
[3] = second compound 0.00316 µM, first compound 0.316 µM
[4] = second compound 0.00316 µM, first compound 1 µM
[5] = second compound 0.00316 µM, first compound 3.16 µM
[6] = second compound 0.00316 µM, first compound 10 µM
[7] = second compound 0.01 µM, first compound 0.0316 µM
[8] = second compound 0.01 µM, first compound 0.1 µM
[9] = second compound 0.01 µM, first compound 0.316 µM
[10] = second compound 0.01 µM, first compound 1 µM
[11] = second compound 0.01 µM, first compound 3.16 µM
[12] = second compound 0.01 µM, first compound 10 µM
[13] = second compound 0.0316 µM, first compound 0.0316 µM
[14] = second compound 0.0316 µM, first compound 0.1 µM
[15] = second compound 0.0316 µM, first compound 0.316 µM
[16] = second compound 0.0316 µM, first compound 1 µM
[17] = second compound 0.0316 µM, first compound 3.16 µM
[18] = second compound 0.0316 µM, first compound 10 µM
[19] = second compound 0.1 µM, first compound 0.0316 µM
[20] = second compound 0.1 µM, first compound 0.1 µM
[21] = second compound 0.1 µM, first compound 0.316 µM
[22] = second compound 0.1 µM, first compound 1 µM
[23] = second compound 0.1 µM, first compound 3.16 µM
[24] = second compound 0.1 µM, first compound 10 µM
[25] = second compound 0.316 µM, first compound 0.0316 µM
[26] = second compound 0.316 µM, first compound 0.1 µM
[27] = second compound 0.316 µM, first compound 0.316 µM
[28] = second compound 0.316 µM, first compound 1 µM
[29] = second compound 0.316 µM, first compound 3.16 µM
[30] = second compound 0.316 µM, first compound 10 µM
[31] = second compound 1 µM, first compound 0.0316 µM
[32] = second compound 1 µM, first compound 0.1 µM
[33] = second compound 1 µM, first compound 0.316 µM
[34] = second compound 1 µM, first compound 1 µM
[35] = second compound 1 µM, first compound 3.16 µM
[36] = second compound 1 µM, first compound 10 µM
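Also: spheroids exposed to agents for 7 days before the viability read.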

C#Cc1c(F)ccc2cc(O)cc(-c3ncc4c(N5CC6CCC(C5)N6)nc(OCC56CCCN5CC(F)C6)nc4c3F)c12 (stereo not drawn) + COc1c(OCCCN2CCOCC2)ccc2c3n(c(=NC(=O)c4cnc(N)nc4)nc12)CCN3
inactive: viability, T/C [1] 84.7% | viability, T/C [2] 99.8% | viability, T/C [3] 88.7% | viability, T/C [4] 91.3% | viability, T/C [5] 80% | viability, T/C [6] 52.1% | viability, T/C [7] 64.1% | viability, T/C [8] 64.8% | viability, T/C [9] 78.9% | viability, T/C [10] 67.4% | viability, T/C [11] 55.5% | viability, T/C [12] 41% | viability, T/C [13] 37% | viability, T/C [14] 45.5% | viability, T/C [15] 34.4% | viability, T/C [16] 34% | viability, T/C [17] 33.6% | viability, T/C [18] 22.8% | viability, T/C [19] 16.4% | viability, T/C [20] 17.1% | viability, T/C [21] 14.6% | viability, T/C [22] 15.6% | viability, T/C [23] 12.2% | viability, T/C [24] 11.4%
< 5.00: pIC50 (second compound 0.00316 µM)
active: viability, T/C [25] 5.31% | viability, T/C [26] 5% | viability, T/C [27] 4.47% | viability, T/C [28] 4.9% | viability, T/C [29] 3.89% | viability, T/C [30] 2.71% | viability, T/C [31] 3.49% | viability, T/C [32] 3.22% | viability, T/C [33] 2.69% | viability, T/C [34] 2.82% | viability, T/C [35] 2.98% | viability, T/C [36] 0.66%
5.31: pIC50 (second compound 0.01 µM)
> 7.50: pIC50 (second compound 0.0316 µM) | pIC50 (second compound 0.1 µM) | pIC50 (second compound 0.316 µM) | pIC50 (second compound 1 µM)

C=CC(=O)N1CCN(c2nc(=O)n(-c3c(C)ccnc3C(C)C)c3nc(-c4c(O)cccc4F)c(F)cc23)C(C)C1 (stereo not drawn) + COc1c(OCCCN2CCOCC2)ccc2c3n(c(=NC(=O)c4cnc(N)nc4)nc12)CCN3
inactive: viability, T/C [1] 54.8% | viability, T/C [2] 40.3% | viability, T/C [3] 44% | viability, T/C [4] 46.3% | viability, T/C [5] 52.3% | viability, T/C [6] 53.9% | viability, T/C [7] 46% | viability, T/C [8] 34.9% | viability, T/C [9] 33.4% | viability, T/C [10] 41.1% | viability, T/C [11] 43.5% | viability, T/C [12] 38.7% | viability, T/C [13] 21.4% | viability, T/C [14] 19.8% | viability, T/C [15] 16.6% | viability, T/C [16] 22.3% | viability, T/C [17] 24.1% | viability, T/C [18] 24.5%
active: viability, T/C [19] 8.54% | viability, T/C [20] 3.86% | viability, T/C [21] 6.45% | viability, T/C [22] 8.64% | viability, T/C [23] 10.2% | viability, T/C [24] 9.28% | viability, T/C [25] 1.88% | viability, T/C [26] 1.7% | viability, T/C [27] 1.81% | viability, T/C [28] 2.12% | viability, T/C [29] 2.85% | viability, T/C [30] 2.77% | viability, T/C [31] 1.07% | viability, T/C [32] 0.62% | viability, T/C [33] 0.69% | viability, T/C [34] 0.95% | viability, T/C [35] 1.99% | viability, T/C [36] 0.95%
> 7.50: pIC50 (second compound 0.00316 µM) | pIC50 (second compound 0.01 µM) | pIC50 (second compound 0.0316 µM) | pIC50 (second compound 0.1 µM) | pIC50 (second compound 0.316 µM) | pIC50 (second compound 1 µM)

CC(Cn1ccc(-c2ccc(C#N)c(Cl)c2)n1)NC(=O)c1cc(C(C)O)[nH]n1 (stereo not drawn) + COc1c(OCCCN2CCOCC2)ccc2c3n(c(=NC(=O)c4cnc(N)nc4)nc12)CCN3
active: viability, T/C [25] 5.01% | viability, T/C [26] 4.53% | viability, T/C [27] 4.26% | viability, T/C [28] 4.08% | viability, T/C [29] 5.69% | viability, T/C [30] 4.16% | viability, T/C [31] 3.17% | viability, T/C [32] 2.54% | viability, T/C [33] 3.2% | viability, T/C [34] 3.42% | viability, T/C [35] 4.42% | viability, T/C [36] 4.01%
> 7.50: pIC50 (second compound 0.0316 µM) | pIC50 (second compound 0.1 µM) | pIC50 (second compound 0.316 µM) | pIC50 (second compound 1 µM)
inactive: viability, T/C [1] 74.1% | viability, T/C [2] 75.2% | viability, T/C [3] 83.8% | viability, T/C [4] 96.2% | viability, T/C [5] 83.8% | viability, T/C [6] 79.3% | viability, T/C [7] 68.8% | viability, T/C [8] 70.4% | viability, T/C [9] 70.3% | viability, T/C [10] 65.6% | viability, T/C [11] 65.7% | viability, T/C [12] 64.2% | viability, T/C [13] 31.1% | viability, T/C [14] 33% | viability, T/C [15] 37.3% | viability, T/C [16] 29.4% | viability, T/C [17] 35.7% | viability, T/C [18] 30.2% | viability, T/C [19] 14.9% | viability, T/C [20] 11% | viability, T/C [21] 14.6% | viability, T/C [22] 19% | viability, T/C [23] 13.3% | viability, T/C [24] 11.6%
< 5.00: pIC50 (second compound 0.00316 µM) | pIC50 (second compound 0.01 µM)

CC1(C)CCC(Nc2ncc(C(F)(F)F)c(-c3c[nH]c4c(P(C)(C)=O)c(C#N)ccc34)n2)CN1 (stereo not drawn) + COc1c(OCCCN2CCOCC2)ccc2c3n(c(=NC(=O)c4cnc(N)nc4)nc12)CCN3
> 7.50: pIC50 (second compound 0.00316 µM) | pIC50 (second compound 0.01 µM) | pIC50 (second compound 0.0316 µM) | pIC50 (second compound 0.1 µM) | pIC50 (second compound 0.316 µM) | pIC50 (second compound 1 µM)
inactive: viability, T/C [1] 30.3% | viability, T/C [2] 35% | viability, T/C [3] 33% | viability, T/C [4] 32.9% | viability, T/C [5] 13.7% | viability, T/C [7] 31.4% | viability, T/C [8] 29.6% | viability, T/C [9] 24.3% | viability, T/C [10] 23.4% | viability, T/C [11] 15.2% | viability, T/C [13] 20.4% | viability, T/C [14] 22.8% | viability, T/C [15] 24.7% | viability, T/C [16] 21.6% | viability, T/C [17] 9.22% | viability, T/C [19] 15.2% | viability, T/C [20] 12.5% | viability, T/C [21] 12.8%
active: viability, T/C [6] 0.49% | viability, T/C [12] 1.02% | viability, T/C [18] 0.59% | viability, T/C [22] 10.9% | viability, T/C [23] 6.57% | viability, T/C [24] 1.66% | viability, T/C [25] 5.18% | viability, T/C [26] 4.62% | viability, T/C [27] 4.01% | viability, T/C [28] 4.88% | viability, T/C [29] 1.53% | viability, T/C [30] 0.09% | viability, T/C [31] 2.28% | viability, T/C [32] 1.83% | viability, T/C [33] 1.8% | viability, T/C [34] 1.55% | viability, T/C [35] 0.47% | viability, T/C [36] 0.27%
